Among the test systems are Hs-578T; SF-268; UO-31; KM12; U-251; SN12C; NCI-H460; EKVX; SW-620; OVCAR-8; 786-0; SK-MEL-5; Malme-3M; T47D; DU-145; K562; IGROV-1; MCF7; SK-MEL-28; A549.
Test in all cases: inhibition of tumour cell growth, NCI panel, 48 h

The structures appear in SMILES notation.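 Interpolation was linear, between the two tested concentrations surrounding the appropriate level; five concentrations were tested over 48 hours in 96-well plates. GI50: concentration for 50% inhibition of growth.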 Active and inactive are the calls of the source. No stated cut-off is given here; in the data, active = GI50 up to about 1.1 µM and inactive = higher.

With `COc1ccc(S(=O)(=O)N/N=C/C(=O)O)cc1`, the GI50 in the assay with Hs-578T was 404 µM (inactive); in the assay with SF-268 it was 384 µM (inactive); in the assay with UO-31, 631 µM (inactive); with KM12 it was 557 µM (inactive); with U-251 it was 499 µM (inactive); in the assay on SN12C it was 475 µM (inactive). For the same compound, the GI50 in the assay on NCI-H460 is 359 µM (inactive); in the assay on EKVX, 1160 µM (inactive); with SW-620, 485 µM (inactive); with OVCAR-8, 499 µM (inactive); in the assay with 786-0, 397 µM (inactive); with SK-MEL-5, 400 µM (inactive). The GI50 in the assay on Malme-3M was 832 µM (inactive); in the assay on T47D, 695 µM (inactive); in the assay with DU-145, 327 µM (inactive); in the assay with K562, 501 µM (inactive); with IGROV-1, 427 µM (inactive); with MCF7, 409 µM (inactive). The GI50 with SK-MEL-28 is 764 µM (inactive); in the assay on A549 it was 849 µM (inactive).

Take `O=C1CCC2(CC1)Cc1ccccc1C2O` (stereo not given): the GI50 in the assay with Hs-578T, with SF-268, in the assay on UO-31, with KM12, in the assay with U-251 and with SN12C was > 100 µM (inactive) throughout. Besides, the GI50 with NCI-H460, in the assay on EKVX, with SW-620, in the assay on OVCAR-8, with 786-0 and in the assay on SK-MEL-5 was > 100 µM (inactive) each time. For the same compound, the GI50 in the assay with Malme-3M, in the assay with T47D, in the assay on DU-145, in the assay with K562, with IGROV-1 and with MCF7 was > 100 µM (inactive) throughout. The GI50 in the assay with SK-MEL-28 and in the assay on A549 was > 100 µM (inactive) throughout.

With `O=C(/C=C/c1ccc2c(c1)OCO2)Cc1nc2ncccc2[nH]c1=O`, the GI50 was 36.5 µM (inactive) in the assay on Hs-578T; 49.7 µM (inactive) in the assay on SF-268; > 100 µM (inactive) with UO-31; 61.1 µM (inactive) with KM12; 31.1 µM (inactive) in the assay on U-251; > 100 µM (inactive) in the assay with SN12C. Moreover, the GI50 in the assay on NCI-H460 is > 100 µM (inactive); with EKVX, > 100 µM (inactive); in the assay on SW-620 it was > 100 µM (inactive); in the assay on OVCAR-8, 59.8 µM (inactive); in the assay with 786-0, 75.3 µM (inactive); in the assay with SK-MEL-5, > 100 µM (inactive). Also, the GI50 in the assay on Malme-3M is > 100 µM (inactive); in the assay with T47D it was 78.3 µM (inactive); in the assay with DU-145 it was > 100 µM (inactive); in the assay with K562, 5.55 µM (inactive); in the assay with IGROV-1 it was 94.6 µM (inactive); in the assay on MCF7 it was > 100 µM (inactive). The GI50 in the assay on SK-MEL-28 and in the assay with A549 was > 100 µM (inactive) throughout.

In the case of `O=P1(O)c2ccccc2Nc2cc(C(F)(F)F)ccc21`, the GI50 in the assay on Hs-578T, with SF-268, in the assay on UO-31, in the assay on KM12, with U-251 and in the assay on SN12C was > 100 µM (inactive) in each case. The GI50 with NCI-H460, in the assay on EKVX, in the assay with SW-620, in the assay with OVCAR-8, in the assay with 786-0 and in the assay with SK-MEL-5 was > 100 µM (inactive) in each case. The GI50 with Malme-3M, in the assay with T47D, in the assay on DU-145, in the assay on K562, in the assay on IGROV-1 and in the assay with MCF7 was > 100 µM (inactive) throughout. Besides, the GI50 in the assay with SK-MEL-28 and in the assay with A549 was > 100 µM (inactive) in each case.

As to `O=S(=O)(N=S(c1ccc(Cl)cc1)c1ccc(Cl)cc1)c1ccccc1`, the GI50 with Hs-578T was 56.9 µM (inactive); in the assay with SF-268 it was > 100 µM (inactive); in the assay with UO-31, 45.1 µM (inactive); in the assay on KM12, 96.6 µM (inactive); in the assay on U-251 it was > 100 µM (inactive); in the assay on SN12C it was 9.95 µM (inactive). The GI50 in the assay with NCI-H460 is 88.7 µM (inactive); in the assay on EKVX, > 100 µM (inactive); in the assay with SW-620, > 100 µM (inactive); in the assay on OVCAR-8, > 100 µM (inactive); with 786-0, > 100 µM (inactive); in the assay on SK-MEL-5, 71 µM (inactive). For the same compound, the GI50 in the assay on Malme-3M is > 100 µM (inactive); in the assay with T47D, 47.5 µM (inactive); in the assay on DU-145, > 100 µM (inactive); in the assay on K562, 46.8 µM (inactive); with IGROV-1 it was > 100 µM (inactive); in the assay with MCF7, 50.9 µM (inactive). The GI50 in the assay with SK-MEL-28 was > 100 µM (inactive); in the assay on A549, 74.5 µM (inactive).

For `CC[C@H]1C=CCC[C@@]2(C[C@@H]3CC[C@@H]4[C@H](C(=O)OCCCCCCCCCCCCCCCC(=O)N(CCCNC(C)=O)C[C@H](CCNC(C)=O)OC(C)=O)[C@]5(CCC[C@@H](C)O5)NC(=[N+]34)N2)O1`, the GI50 was 0.391 µM (active) in the assay on Hs-578T; 0.187 µM (active) with SF-268; 1.2 µM (inactive) with UO-31; 0.0847 µM (active) in the assay with KM12; 0.0538 µM (active) in the assay on U-251; 0.516 µM (active) with SN12C. The GI50 in the assay on NCI-H460 was 0.131 µM (active); in the assay with EKVX, 0.392 µM (active); with SW-620, 0.264 µM (active); in the assay on OVCAR-8, 0.614 µM (active); with 786-0, 0.109 µM (active); in the assay with SK-MEL-5, 0.124 µM (active). Besides, the GI50 in the assay with Malme-3M was 0.21 µM (active); in the assay with T47D, 0.249 µM (active); with DU-145, 0.0918 µM (active); with K562 it was 0.168 µM (active); in the assay with IGROV-1, 0.0583 µM (active); in the assay with MCF7 it was 0.0861 µM (active). For the same compound, the GI50 with SK-MEL-28 was 0.757 µM (active); with A549, 0.215 µM (active).

With `O=C1c2c(ccc3c2CCCC3)CC12Cc1ccccc1C2`, the GI50 with Hs-578T is 22.5 µM (inactive); with SF-268 it was 43.2 µM (inactive); with UO-31 it was 5.28 µM (inactive); in the assay on KM12 it was 16.4 µM (inactive); with U-251 it was 27.2 µM (inactive); with SN12C it was 21.8 µM (inactive). Besides, the GI50 in the assay on NCI-H460 is 4.93 µM (inactive); in the assay on EKVX, 20 µM (inactive); in the assay on SW-620 it was 4.88 µM (inactive); in the assay with OVCAR-8, 9.84 µM (inactive); in the assay on 786-0 it was 14.2 µM (inactive); with SK-MEL-5 it was 6.19 µM (inactive). Moreover, the GI50 with Malme-3M is 5.48 µM (inactive); in the assay on T47D it was 17.9 µM (inactive); in the assay on DU-145, 22.3 µM (inactive); in the assay with K562 it was 11.8 µM (inactive); in the assay on IGROV-1, 30.2 µM (inactive); in the assay on MCF7 it was 17 µM (inactive). Also, the GI50 in the assay on SK-MEL-28 was 14.4 µM (inactive); with A549 it was 13.1 µM (inactive).

Take `CN(C)CCOc1ccc(I)cc1Cc1ccccc1`: the GI50 with Hs-578T is 11.1 µM (inactive); in the assay with SF-268, 13.2 µM (inactive); with UO-31 it was 7.69 µM (inactive); in the assay with KM12, 13.7 µM (inactive); with U-251 it was 12.4 µM (inactive); in the assay on SN12C it was 12.1 µM (inactive). The GI50 is 11.9 µM (inactive) with NCI-H460; 14.5 µM (inactive) in the assay on EKVX; 14.2 µM (inactive) with SW-620; 16 µM (inactive) with OVCAR-8; 10.7 µM (inactive) with 786-0; 3.61 µM (inactive) in the assay with SK-MEL-5. Also, the GI50 in the assay on Malme-3M was 15.9 µM (inactive); in the assay on T47D, 3.81 µM (inactive); in the assay with DU-145, 17.1 µM (inactive); in the assay with K562, 3.39 µM (inactive); in the assay with IGROV-1 it was 4.6 µM (inactive); in the assay with MCF7, 13 µM (inactive). The GI50 was 4.74 µM (inactive) in the assay with SK-MEL-28 and 15.5 µM (inactive) in the assay on A549.

As for `CN(C)c1ccc(/C=C2\N=C(c3ccccc3)N(c3nc4ccc(Sc5ccccc5)cc4[nH]3)C2=O)cc1`, the GI50 in the assay with Hs-578T is 35.2 µM (inactive); in the assay with SF-268 it was 43.8 µM (inactive); in the assay with UO-31 it was 59.3 µM (inactive); in the assay on KM12, 27.8 µM (inactive); in the assay on U-251, 47.9 µM (inactive); in the assay with SN12C, 45.4 µM (inactive). Besides, the GI50 was 30 µM (inactive) in the assay on NCI-H460; 40.7 µM (inactive) in the assay on EKVX; 34.6 µM (inactive) with SW-620; 43 µM (inactive) in the assay on OVCAR-8; 42.2 µM (inactive) in the assay on 786-0; 32.4 µM (inactive) in the assay on SK-MEL-5. The GI50 is 99.8 µM (inactive) in the assay on Malme-3M; 44 µM (inactive) with T47D; 77.4 µM (inactive) with DU-145; 26.4 µM (inactive) with K562; 61.5 µM (inactive) in the assay with IGROV-1; 30 µM (inactive) in the assay on MCF7. The GI50 in the assay with SK-MEL-28 was 57.1 µM (inactive); with A549, 41.5 µM (inactive).

Regarding `Nc1c2c(nc3ccccc13)-c1ccccc1NCCC2`, the GI50 with Hs-578T was 56.5 µM (inactive); in the assay on SF-268 it was 45.1 µM (inactive); with UO-31 it was 25 µM (inactive); in the assay on KM12 it was 35.2 µM (inactive); with U-251, 32.2 µM (inactive); with SN12C, 33.3 µM (inactive). Moreover, the GI50 was 15.3 µM (inactive) in the assay with NCI-H460; 38.3 µM (inactive) in the assay with EKVX; 23.4 µM (inactive) in the assay on SW-620; 42.2 µM (inactive) with OVCAR-8; 16.7 µM (inactive) with 786-0; 15.1 µM (inactive) with SK-MEL-5. Moreover, the GI50 with Malme-3M was 18 µM (inactive); with T47D it was 26.1 µM (inactive); with DU-145, 59.7 µM (inactive); in the assay on K562 it was 23.4 µM (inactive); in the assay on IGROV-1, 33.3 µM (inactive); in the assay with MCF7, 34.2 µM (inactive). For the same compound, the GI50 was 18.2 µM (inactive) with SK-MEL-28 and 47.4 µM (inactive) with A549.

(Values after ChEMBL document CHEMBL1201862, “PubChem BioAssay data set” (2004).)
